± gives the standard deviation of the averaged measurements.
Columns and labels:
Experiment in all cases: level (log10 ratio to DMSO vehicle control); higher = higher biomarker level / cell amount than vehicle control
[1] = compound: C=C(C)C(=O)OCCC(F)(F)C(F)(F)C(F)(F)C(F)(F)C(F)(F)C(F)(F)C(F)(F)C(F)(F)F [8:2 Fluorotelomer methacrylate] (in DMSO)
Procedure: (§1)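 BioMAP Diversity Plus panel of 12 human primary cell co-culture systems (3C, 4H, LPS, SAg, BT, BF4T, BE3C, CASM3C, HDF3CGF, KF3CT, MyoF, Mphg). Compounds were added 1 h before stimulation and left for 24 h (MyoF 48 h; BT 72 h for soluble read-outs or 6 d for IgG). Biomarkers were read by ELISA, cytotoxicity by SRB, PBMC viability and proliferation by Alamar Blue. Each well value was divided by the mean of 8 DMSO control wells on the same plate and log10 transformed; duplicate blinded samples were tested at 4 concentrations.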

[2] = compound: CN(C(=O)C(F)(F)C(F)(F)C(F)(F)F)[Si](C)(C)C [N-Methyl-N-trimethylsilylheptafluorobutyramide] (in DMSO)
Procedure: as §1

[3] = compound: O=C(O)C=C(C(F)(F)F)C(F)(F)F [3,3-Bis(trifluoromethyl)-2-propenoic acid] (in DMSO)
Procedure: as §1

[4] = compound: O=S(=O)(O)C(F)(F)C(F)(F)C(F)(F)C(F)(F)C(F)(F)C(F)(F)C(F)(F)F [Perfluoroheptanesulfonic acid] (in DMSO)
Procedure: as §1

[5] = compound: OCC(F)(F)OC(F)(F)C(F)(F)OC(F)(F)C(F)(F)OC(F)(F)CO [1H,1H,11H,11H-Perfluorotetraethylene glycol] (in DMSO)
Procedure: as §1

[6] = compound: OCCC(F)(F)C(F)(F)C(F)(F)C(F)(F)F [4:2 Fluorotelomer alcohol] (in DMSO)
Procedure: as §1

| Test System | level (log10) ([1]; 6700 nM) | level (log10) ([1]; 20000 nM) | level (log10) ([2]; 6700 nM) | level (log10) ([2]; 20000 nM) | level (log10) ([2]; 60000 nM) | level (log10) ([3]; 6700 nM) | level (log10) ([3]; 20000 nM) | level (log10) ([3]; 60000 nM) | level (log10) ([4]; 1500 nM) | level (log10) ([4]; 4400 nM) | level (log10) ([4]; 13000 nM) | level (log10) ([4]; 40000 nM) | level (log10) ([5]; 6700 nM) | level (log10) ([5]; 20000 nM) | level (log10) ([5]; 60000 nM) | level (log10) ([6]; 6700 nM) | level (log10) ([6]; 20000 nM) | level (log10) ([6]; 60000 nM) |
| --- | --- | --- | --- | --- | --- | --- | --- | --- | --- | --- | --- | --- | --- | --- | --- | --- | --- | --- |
| SAg:CD38 | -0.0195 ± 0.00071 | -0.011 ± 0.013 | -0.0015 ± 0.019 | -0.009 ± 0.0014 | 0.0115 ± 0.023 | 0.0025 ± 0.013 | -0.019 ± 0.017 | -0.073 ± 0.0028 | -0.003 ± 0.025 | -0.019 ± 0.017 | -0.008 ± 0.027 | -0.011 ± 0.0042 | -0.0035 ± 0.049 | -0.0255 ± 0.023 | -0.0895 ± 0.033 | 0.0085 ± 0.11 | 0.0295 ± 0.1 | 0.0235 ± 0.077 |
| SAg:CXCL9/MIG | 0.001 ± 0.0099 | 0.002 ± 0.0014 | 0.007 ± 0.0057 | -0.009 ± 0.0014 | -0.0135 ± 0.0078 | -0.0065 ± 0.012 | -0.017 ± 0.0099 | 0.006 ± 0.0071 | -0.0015 ± 0.0092 | -0.002 ± 0.018 | -0.004 ± 0.0085 | 0.008 | -0.0095 ± 0.005 | 0.0095 ± 0.0035 | 0.015 ± 0.0071 | -0.0125 ± 0.0092 | 0.003 ± 0.0057 | 0.0105 ± 0.035 |
| LPS:M-CSF | -0.019 ± 0.021 | -0.0635 ± 0.00071 | -0.0075 ± 0.0092 | -0.0135 ± 0.012 | -0.0045 ± 0.079 | -0.071 ± 0.082 | -0.155 ± 0.13 | -0.203 ± 0.13 | -0.008 ± 0.027 | -0.0185 ± 0.015 | -0.0405 ± 0.013 | -0.02 ± 0.024 | 0.0105 ± 0.03 | -0.0025 ± 0.036 | 0.0355 ± 0.011 | -0.041 ± 0.027 | 0.005 ± 0.057 | 0.029 ± 0.044 |
| BE3C:CD54/ICAM-1 | -0.012 ± 0.018 | 0.002 ± 0.061 | -0.0005 ± 0.005 | 0.0045 ± 0.0064 | 0.001 ± 0.0028 | -0.004 ± 0.017 | 0.0025 ± 0.0021 | 0.031 ± 0.04 | 0.006 ± 0.027 | 0.0015 ± 0.022 | -0.0025 ± 0.036 | 0.0055 ± 0.052 | -0.004 ± 0.011 | 0.012 ± 0.0099 | -0.048 ± 0.0099 | -0.019 ± 0.024 | -0.008 ± 0.0057 | 0.01 ± 0.0028 |
| 4H:VEGFR2 | 0.028 ± 0.023 | 0.015 ± 0.05 | 0.006 ± 0.0057 | 0.003 ± 0.0099 | 0.019 ± 0.042 | -0.02 | -0.019 ± 0.0099 | -0.04 ± 0.0057 | 0.023 ± 0.041 | -0.013 ± 0.0085 | -0.005 ± 0.044 | 0.043 ± 0.1 | 0.008 ± 0.042 | 0.003 ± 0.05 | 0.07 ± 0.051 | -0.071 ± 0.035 | -0.021 ± 0.033 | -0.0205 ± 0.0064 |
| 4H:CD62P/P-selectin | -0.02 ± 0.02 | -0.0375 ± 0.0035 | -0.0065 ± 0.067 | -0.011 ± 0.052 | 0.002 ± 0.047 | 0.005 ± 0.0042 | -0.0505 ± 0.022 | -0.164 ± 0.028 | -0.0225 ± 0.043 | -0.0165 ± 0.005 | -0.002 ± 0.02 | 0.0305 ± 0.022 | -0.0065 ± 0.035 | -0.0155 ± 0.018 | -0.0055 ± 0.0078 | -0.0235 ± 0.037 | -0.02 ± 0.0071 | 0.025 ± 0.023 |
| SAg:CD62E/E-Selectin | -0.005 ± 0.013 | 0.0205 ± 0.023 | -0.017 ± 0.0085 | -0.017 ± 0.017 | -0.0225 ± 0.021 | -0.096 ± 0.0071 | -0.192 ± 0.032 | -0.459 ± 0.11 | 0.0035 ± 0.043 | -0.03 ± 0.018 | 0.0025 ± 0.00071 | 0.0435 ± 0.0035 | -0.009 ± 0.042 | -0.0455 ± 0.0078 | -0.276 ± 0.062 | -0.0125 ± 0.011 | -0.001 ± 0.011 | 0.025 ± 0.016 |
| LPS:CD62E/E-Selectin | 0.028 ± 0.0014 | 0.027 ± 0.035 | 0.0095 ± 0.026 | 0.002 ± 0.014 | 0.0105 ± 0.054 | -0.013 ± 0.021 | -0.025 ± 0.0071 | -0.0345 ± 0.005 | 0.0155 ± 0.015 | -0.0065 ± 0.0035 | -0.0075 ± 0.026 | 0.0095 ± 0.042 | 0.004 ± 0.025 | -0.012 ± 0.016 | -0.0165 ± 0.016 | 0.002 ± 0.023 | -0.0195 ± 0.012 | -0.0045 ± 0.03 |
| BE3C:IL-1alpha | -0.018 ± 0.02 | -0.0005 ± 0.0078 | 0.0045 ± 0.005 | -0.0075 ± 0.019 | 0.032 ± 0.014 | 0.012 ± 0.02 | 0.0005 ± 0.0092 | 0.001 ± 0.023 | 0.0275 ± 0.005 | 0.006 | 0.001 ± 0.0099 | 0.039 ± 0.03 | -0.001 ± 0.024 | -0.0185 ± 0.0035 | -0.0065 ± 0.057 | -0.0425 ± 0.026 | -0.0345 ± 0.016 | -0.017 ± 0.0085 |
| BF4T:CCL26/Eotaxin-3 | -0.02 ± 0.0099 | -0.069 ± 0.013 | -0.0025 ± 0.035 | -0.0135 ± 0.015 | 0.0045 ± 0.0078 | -0.089 ± 0.03 | -0.124 ± 0.0014 | -0.126 ± 0.067 | 0.053 ± 0.05 | 0.01 | -0.0715 ± 0.011 | -0.069 ± 0.058 | 0.0395 ± 0.025 | -0.013 ± 0.021 | -0.0675 ± 0.0064 | -0.037 ± 0.068 | 0.016 ± 0.073 | 0.001 ± 0.082 |
| BF4T:MMP-3 | -0.0035 ± 0.019 | 0.0255 ± 0.044 | -0.016 ± 0.031 | -0.008 ± 0.011 | 0 ± 0.017 | -0.0165 ± 0.00071 | -0.0105 ± 0.0064 | 0.0205 ± 0.037 | 0.047 ± 0.045 | -0.015 ± 0.014 | 0.0025 ± 0.046 | 0.117 ± 0.028 | 0.0035 ± 0.016 | 0.012 ± 0.0028 | -0.011 ± 0.013 | -0.0135 ± 0.021 | -0.008 ± 0.013 | -0.011 ± 0.014 |
| LPS:CCL2/MCP-1 | -0.0045 ± 0.047 | 0.042 ± 0.0085 | -0.0085 ± 0.0021 | -0.012 ± 0.013 | -0.0005 ± 0.023 | 0.0015 ± 0.00071 | -0.0145 ± 0.0035 | -0.02 ± 0.03 | 0.0045 ± 0.037 | -0.0455 ± 0.026 | -0.005 ± 0.042 | 0.014 ± 0.1 | -0.0125 ± 0.0035 | -0.033 ± 0.028 | -0.0405 ± 0.025 | -0.0125 ± 0.021 | -0.0095 ± 0.00071 | 0.019 ± 0.0057 |
| 3C:HLA-DR | -0.0035 ± 0.035 | 0.0115 ± 0.028 | 0.0015 ± 0.015 | 0.0045 ± 0.012 | 0.0285 ± 0.033 | -0.012 ± 0.014 | -0.0415 ± 0.039 | -0.189 ± 0.031 | 0.0125 ± 0.0064 | -0.0075 ± 0.0092 | -0.005 ± 0.024 | 0.008 ± 0.016 | -0.0055 ± 0.049 | -0.001 ± 0.023 | -0.047 ± 0.028 | -0.019 | -0.0145 ± 0.0092 | 0 ± 0.011 |
| BT:Secreted IgG | 0.0175 ± 0.012 | 0.028 ± 0.0085 | 0.01 ± 0.011 | 0.016 ± 0.03 | 0.013 ± 0.048 | 0.0155 ± 0.005 | -0.0375 ± 0.052 | -0.597 ± 0.16 | 0.0285 ± 0.0021 | 0.0265 ± 0.0064 | -0.006 ± 0.033 | 0.002 ± 0.045 | -0.093 ± 0.0099 | -0.135 ± 0.0071 | -0.374 ± 0.055 | 0.023 ± 0.028 | 0.0205 ± 0.018 | 0.013 ± 0.0057 |

From the supplement of paper PMC10331698
